Read-outs that look alike come from different tables or passages of the source.
Legend:
[1] = target: human carbonic anhydrase-2 (Homo sapiens (Human), UniProt P00918); assay: Carbonic anhydrase assay, carbonic anhydrase-2 (Method 4); assay type: biochemical; conditions: read-out: Inhibition of Carbonic anhydrase-2 IC50
Experimental: (§1) 4. Carbonic Anhydrase Assay
The principle of the assay is based on the hydrolysis of 4-nitrophenyl acetate by carbonic anhydrases (Pocker & Stone, Biochemistry, 1967, 6, 668), with subsequent photometric determination of the dye product 4-nitrophenolate at 400 nm by means of a 96-channel spectral photometer.
(§2) 2 μL of the test compounds, dissolved in DMSO (100-fold final concentration), in a concentration range of 0.03-10 μmol/L (final), was pipetted as quadruplicates into the wells of a 96-hole microtiter plate. Wells that contained the solvent without test compounds were used as reference values (1. Wells without carbonic anhydrase for correction of the non-enzymatic hydrolysis of the substrate, and 2. Wells with carbonic anhydrase for determining the activity of the non-inhibited enzyme).
(§3) 188 μL of assay buffer (10 mmol/L of Tris/HCl, pH 7.4, 80 mmol/L of NaCl), with or without 3 units/well of carbonic anhydrase-1 [=human carbonic anhydrase-1 (Sigma, #C4396)] in order to determine carbonic anhydrase-1 inhibition or 3 units/well of carbonic anhydrase-2 [=human carbonic anhydrase-2 (Sigma, #C6165)] for measuring carbonic anhydrase-2 inhibition, was pipetted into the wells of the microtiter plate.

[2] = target: human carbonic anhydrase-1 (Homo sapiens (Human), UniProt P00915); assay: Carbonic anhydrase assay, carbonic anhydrase-1 (Method 4); assay type: biochemical; conditions: read-out: Inhibition of Carbonic anhydrase-1 IC50
Sequence of human carbonic anhydrase-1 (P00915 whole entry): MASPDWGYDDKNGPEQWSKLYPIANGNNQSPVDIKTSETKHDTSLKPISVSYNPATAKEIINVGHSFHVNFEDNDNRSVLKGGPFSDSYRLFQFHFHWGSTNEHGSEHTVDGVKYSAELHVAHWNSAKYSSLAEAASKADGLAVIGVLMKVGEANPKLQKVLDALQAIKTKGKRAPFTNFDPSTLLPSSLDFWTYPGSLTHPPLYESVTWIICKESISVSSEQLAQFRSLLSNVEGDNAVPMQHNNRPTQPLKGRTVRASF
Experimental: as §1, §2, §3

[3] = In vitro metabolic stability in rat hepatocytes (Method 5); assay type: in vitro ADME, Han Wistar rat; conditions: 1 μM test compound
Summary of the method: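 Han Wistar rat hepatocytes isolated by 2-step perfusion, incubated at 1.0×10^6 viable cells/ml in Williams medium E with 5% FCS with 1 μM test compound, shaken; samples at 2–90 min quenched with acetonitrile, analysed by LC-MS/MS. Half-life from concentration-time plot, converted to intrinsic clearance.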

[4] = target: CDK2/CycE (Homo sapiens (Human), UniProt P24941); assay: CDK2/CycE kinase assay (Method 2); assay type: biochemical; conditions: 10 μM ATP
[5] = test system: MOLM-13 human acute myeloid leukemia cells; assay: Proliferation assay, MOLM-13 (Cell Titre-Glo, Method 3); assay type: cell-based; conditions: MOLM-13, 72-hour exposure, read-out: Inhibition of MOLM-13 cell proliferation IC50
Experimental: Non-adherent MOLM-13 human acute myeloid leukemia cells (DSMZ ACC 554) were seeded at a density of 5,000 cells/well in a 96-well multititer plate in 100 μL of growth medium supplemented 10% fetal calf serum. After 24 hours, cell viability of one plate (zero-point plate) was determined with the Cell Titre-Glo Luminescent Cell Viability Assay (Promega), while 50 μL of test compound containing medium was added to the wells of the other plates (final concentrations in the range of 0.001-10 μM and DMSO controls; the final concentration of the solvent dimethyl sulfoxide was 0.5%). Cell viability was assessed after 72-hour exposure with the Cell Titre-Glo Luminescent Cell Viability Assay (Promega).

Row | Structure (SMILES) | IC50 [1] [nM] | IC50 [2] [nM] | maximal calculated oral bioavailability (Fmax) based on stability data in rat Hepatocytes [3] [%] | IC50 [4] [nM] | IC50 [5] [nM] | IC50 ([5]; Homo sapiens, MOLM-13, 72 h) [nM]
1 | CS(=O)(Cc1cc(Nc2ncc(F)c(-c3ccc(F)cc3F)n2)cc(C(F)(F)F)c1)=NC(N)=O (racemic) [Example 7, (rac)-1-{[3-{[4-(2,4-Difluorophenyl)-5-fluoropyrimidin-2-yl]amino}-5-(trifluoromethyl)benzyl](methyl)oxido-λ^6-sulfanylidene}urea] | > 10000 | > 10000 | 80 | 1100 |  | 
2 | CS(=O)(Cc1cc(Nc2ncc(F)c(-c3ccc(F)cc3F)n2)cc(C(F)(F)F)c1)=NC(N)=O (single isomer, unassigned) [Example 23, 1-{[3-{[4-(2,4-Difluorophenyl)-5-fluoropyrimidin-2-yl]amino}-5-(trifluoromethyl)benzyl](methyl)oxido-λ^6-sulfanylidene}urea] |  |  | 93 | 370 |  | 
3 | CS(=O)(Cc1cc(Nc2ncc(F)c(-c3ccc(F)cc3F)n2)cc(C(F)(F)F)c1)=NC#N (racemic) [Example 1, (rac)-{[3-{[4-(2,4-Difluorophenyl)-5-fluoropyrimidin-2-yl]amino}-5-(trifluoromethyl)benzyl](methyl)oxido-λ^6-sulfanylidene}cyanamide] | > 10000 | > 10000 | 75 | 1400 |  | 
4 | CS(=N)(=O)Cc1cc(Nc2ncc(F)c(-c3ccc(F)cc3F)n2)cc(S(F)(F)(F)(F)F)c1 (single isomer, unassigned) [Example 32, 4-(2,4-Difluorophenyl)-5-fluoro-N-{3-[(S-methylsulfonimidoyl)methyl]-5-(pentafluoro-λ^6-sulfanyl)phenyl}pyrimidin-2-amine] |  |  | 91 | 1600 | 165 | 
5 | CS(=N)(=O)Cc1cc(Cl)cc(Nc2ncc(F)c(-c3ccc(F)cc3F)n2)c1 (racemic) [Example 15, (rac)-N-{3-chloro-5-[(S-methylsulfonimidoyl)methyl]phenyl}-4-(2,4-difluorophenyl)-5-fluoropyrimidin-2-amine] | > 10000 | > 10000 | 79 | 630 |  | 
6 | CS(=O)(Cc1cc(Nc2ncc(F)c(-c3ccc(F)cc3F)n2)cc(C(F)(F)F)c1)=NC#N (single isomer, unassigned) [Example 3, {[3-{[4-(2,4-Difluorophenyl)-5-fluoropyrimidin-2-yl]amino}-5-(trifluoromethyl)benzyl](methyl)oxido-λ^6-sulfanylidene}cyanamide] |  |  | 76 | 1300 |  | 

The next lines start with the values.

Row | IC50 [1] [nM] | IC50 [2] [nM] | maximal calculated oral bioavailability (Fmax) based on stability data in rat Hepatocytes [3] [%] | IC50 [4] [nM] | IC50 [5] [nM] | IC50 ([5]; Homo sapiens, MOLM-13, 72 h) [nM] | Structure (SMILES)
7 | > 10000 | > 10000 | 91 | 880 |  |  | CS(=N)(=O)Cc1cc(Nc2ncc(F)c(-c3ccc(F)cc3F)n2)cc(C(F)(F)F)c1 (racemic) [Example 4, (rac)-4-(2,4-Difluorophenyl)-5-fluoro-N-{3-[(S-methylsulfonimidoyl)methyl]-5-(trifluoromethyl)phenyl}pyrimidin-2-amine]
8 |  |  | 79 | 1200 |  |  | CS(=O)(Cc1cc(Nc2ncc(F)c(-c3ccc(F)cc3F)n2)cc(C(F)(F)F)c1)=NC#N (single isomer, unassigned) [Example 2, {[3-{[4-(2,4-Difluorophenyl)-5-fluoropyrimidin-2-yl]amino}-5-(trifluoromethyl)benzyl](methyl)oxido-λ^6-sulfanylidene}cyanamide]
9 |  |  |  | 1600 | 200 |  | CS(=O)(Cc1cc(Nc2ncc(F)c(-c3ccc(F)cc3F)n2)cc(S(F)(F)(F)(F)F)c1)=NC(N)=O (single isomer, unassigned) [Example 33, 1-{[3-{[4-(2,4-Difluorophenyl)-5-fluoropyrimidin-2-yl]amino}-5-(pentafluoro-λ^6-sulfanyl)benzyl](methyl)oxido-λ^6-sulfanylidene}urea]
10 |  |  |  | 1300 |  | 145 | CS(=O)(Cc1cc(Nc2ncc(F)c(-c3ccc(F)cc3F)n2)cc(S(F)(F)(F)(F)F)c1)=NC#N (racemic) [Example 28, (rac)-{[3-{[4-(2,4-Difluorophenyl)-5-fluoropyrimidin-2-yl]amino}-5-(pentafluoro-λ^6-sulfanyl)benzyl](methyl)oxido-λ^6-sulfanylidene}cyanamide]
